Data on 20 compounds can be found in US20120157494A1, “ISOINDOLYL COMPOUNDS” (priority 2010, published 2012).

One data set has as its target T1, hP2X7 (Homo sapiens, UniProt Q99572).
T1 construct: 1321N1 cells stably expressing the full length human P2X7 gene (1321N1-hP2X7); expressed in transfected cells
T1 sequence (Q99572 1-595): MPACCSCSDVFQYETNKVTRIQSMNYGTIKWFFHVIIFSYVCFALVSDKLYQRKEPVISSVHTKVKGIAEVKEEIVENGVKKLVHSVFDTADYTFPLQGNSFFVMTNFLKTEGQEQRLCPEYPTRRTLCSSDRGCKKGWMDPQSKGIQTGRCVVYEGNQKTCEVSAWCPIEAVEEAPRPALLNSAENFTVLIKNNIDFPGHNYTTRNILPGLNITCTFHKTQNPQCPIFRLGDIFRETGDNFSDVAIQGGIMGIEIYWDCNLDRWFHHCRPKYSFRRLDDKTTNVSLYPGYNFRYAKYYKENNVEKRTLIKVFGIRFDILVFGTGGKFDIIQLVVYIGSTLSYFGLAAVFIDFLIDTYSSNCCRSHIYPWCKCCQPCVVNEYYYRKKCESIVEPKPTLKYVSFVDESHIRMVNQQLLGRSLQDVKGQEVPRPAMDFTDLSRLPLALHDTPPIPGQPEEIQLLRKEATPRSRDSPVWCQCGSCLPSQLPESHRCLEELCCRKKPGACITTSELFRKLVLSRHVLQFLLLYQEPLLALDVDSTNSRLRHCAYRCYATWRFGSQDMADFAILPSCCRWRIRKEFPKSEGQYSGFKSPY
As to the kind of experiment: Intracellular Calcium Flux (FLIPR) Assay. The format is cell-based. To be noted: 1321N1 cells stably expressing human P2X7; agonist 100 μM BzATP; 20 min equilibration with antagonist; read-out: FLIPR pIC50 hP2X7-1321n1 (converted). As for the experimental part:
Stock solutions of compounds were prepared from powders as a 10 mM DMSO stock solution. These solutions were stored at RT during the two week period of these experiments to prevent freeze-thaw of the DMSO stocks. The DMSO stocks were added to the appropriate assay buffer at a concentration of 10 μM, and then diluted serially to the final concentrations that were tested. No observable precipitate was formed at any time during this process. The aqueous solutions of compounds as well as ATP (Sigma A7699) and BzATP (Sigma B6396) were prepared fresh for each day of experiment.
1321N1 cells stably expressing the full length human P2X7 gene (1321N1-hP2X7) and HEK293 cells stably expressing the full length rat P2X7 gene (HEK293-rP2X7) were obtained from the Roche Cell Culture Facility. 1321N1-hP2X7 cells were grown in Dulbecco's Modified Eagle's Medium (DMEM) high glucose supplemented with 10% FBS and 250 μg/mL G418. HEK293-rP2X7 cells were grown in DMEM/F-12 supplemented with 10% FBS, 1 mM CaCl2, 2 mM MgCl2, 2 mM L-Glutamine and 500 μg/ml G418. Cells were split such that they never became >70% confluent.
On the day prior to the experiment, 1321N1-hP2X7 or HEK293-rP2X7 cells were released into suspension with calcium-free PBS+Versene and washed by centrifugation with calcium-free PBS to remove the Versene. Cells were resuspended in growth medium at a density of 2.5×10^5 cells/mL and seeded into black walled, clear bottom 96 well plates (50,000 cells/well) approximately 18 hr prior to intracellular calcium flux experiments.
On the day of the experiment, plates were washed with FLIPR buffer (calcium- and magnesium-free Hank's Balanced Salt Solution (HBSS) supplemented with 10 mM Hepes, 2.5 mM probenecid and 2 mM calcium chloride) using a BIO-TEK 96 channel plate washer and incubated with […] fluo-3 dye at 37° C. for one hr. The dye was then removed by plate washing and the cells were allowed to equilibrate for 20 min at room temperature with antagonist or vehicle (FLIPR buffer). Agonist (100 μM BzATP final concentration for hP2X7; 5 μM BzATP final concentration or rP2X7) was added online with the FLIPR and fluorescence measurements made at 1 sec intervals for 60 sec followed by 3 sec intervals for a further 4 min (5 min total). A final addition of 5 μM ionomycin was made and the maximal BzATP-evoked fluorescence normalized to the maximal ionomycin-evoked fluorescence.
A general note: A change in cytosolic calcium serves as a functional read-out for many receptors and channels.

For the compound `COCCN1Cc2c(ccc(Cl)c2NC(=O)Cc2ccc(F)c(C(F)(F)F)c2)C1=O` [Compound I-20, N-[5-Chloro-2-(2-methoxy-ethyl)-1-oxo-2,3-dihydro-1H-isoindol-4-yl]-2-(4-fluoro-3-trifluoromethyl-phenyl)-acetamide], on hP2X7, the IC50 is 891 nM.
The compound `O=C(NCC1COCCO1)[C@@H]1CCCN(c2cccc3c2C(=O)N(Cc2ccncc2)C3=O)C1` (stereo partly drawn) [Compound I-14, (R)-1-(1,3-Dioxo-2-pyridin-4-ylmethyl-2,3-dihydro-1H-isoindol-4-yl)-piperidine-3-carboxylic acid ([1,4]dioxan-2-ylmethyl)-amide] yielded a melting point of 186 to 187 °C. For the same compound, at hP2X7, the IC50 was 912 nM.
`O=C(NCc1ccccc1OC(F)(F)F)[C@@H]1CCCN(c2cccc3c2C(=O)N(Cc2ccncc2)C3=O)C1` [Compound I-7, (R)-1-(1,3-Dioxo-2-pyridin-4-ylmethyl-2,3-dihydro-1H-isoindol-4-yl)-piperidine-3-carboxylic acid 2-trifluoromethoxy-benzylamide] gave a melting point of 197 to 198 °C. Besides, the IC50 at hP2X7 was 851 nM.
Regarding `C[C@H](CO)N1Cc2c(ccc(Cl)c2NC(=O)Cc2ccc(F)c(C(F)(F)F)c2)C1=O` [Compound I-17, N-[5-Chloro-2-((R)-2-hydroxy-1-methyl-ethyl)-1-oxo-2,3-dihydro-1H-isoindol-4-yl]-2-(4-fluoro-3-trifluoromethyl-phenyl)-acetamide], at hP2X7, the IC50 was 174 nM.
Turning to `O=C(NCC12CC3CC(CC(C3)C1)C2)[C@@H]1CCCN(c2cccc3c2C(=O)N(Cc2ccncc2)C3=O)C1` [Compound I-3, (R)-1-(1,3-Dioxo-2-pyridin-4-ylmethyl-2,3-dihydro-1H-isoindol-4-yl)-piperidine-3-carboxylic acid (adamantan-1-ylmethyl)-amide], the IC50 at hP2X7 is 107 nM.
With `COc1ccccc1CNC(=O)C1CCCN(c2cccc3c2C(=O)N(Cc2ccncc2)C3=O)C1` (stereo not shown) [Compound I-1a, 1-(1,3-Dioxo-2-pyridin-4-ylmethyl-2,3-dihydro-1H-isoindol-4-yl)-piperidine-3-carboxylic acid 2-methoxy-benzylamide], the IC50 at hP2X7 is 155 nM.
Still for that read-out and setting: under `CSc1ccccc1CNC(=O)[C@@H]1CCCN(c2cccc3c2C(=O)N(Cc2ccncc2)C3=O)C1` [Compound I-12, (R)-1-(1,3-Dioxo-2-pyridin-4-ylmethyl-2,3-dihydro-1H-isoindol-4-yl)-piperidine-3-carboxylic acid 2-methylsulfanyl-benzylamide] stands 30.9 nM; under `COc1ccccc1NC(=O)[C@@H]1CCCN(c2cccc3c2C(=O)N(Cc2ccncc2)C3=O)C1` [Compound I-4, (R)-1-(1,3-Dioxo-2-pyridin-4-ylmethyl-2,3-dihydro-1H-isoindol-4-yl)-piperidine-3-carboxylic acid (2-methoxy-phenyl)-amide], 724 nM.
For the compound `O=C(NCc1ccccc1O)[C@@H]1CCCN(c2cccc3c2C(=O)N(Cc2ccncc2)C3=O)C1` [Compound I-11, (R)-1-(1,3-Dioxo-2-pyridin-4-ylmethyl-2,3-dihydro-1H-isoindol-4-yl)-piperidine-3-carboxylic acid 2-hydroxy-benzylamide], the melting point is 181 to 182 °C. The IC50 at hP2X7 was 100 nM.
With `COc1ccccc1CNC(=O)[C@@H]1CCCN(c2cccc3c2C(=O)N(Cc2cncs2)C3=O)C1` [Compound I-6, (R)-1-(1,3-Dioxo-2-thiazol-5-ylmethyl-2,3-dihydro-1H-isoindol-4-yl)-piperidine-3-carboxylic acid 2-methoxy-benzylamide], on hP2X7, the IC50 was 417 nM.
On to `O=C(NCc1ccccc1F)[C@@H]1CCCN(c2cccc3c2C(=O)N(Cc2ccncc2)C3=O)C1` [Compound I-13, (R)-1-(1,3-Dioxo-2-pyridin-4-ylmethyl-2,3-dihydro-1H-isoindol-4-yl)-piperidine-3-carboxylic acid 2-fluoro-benzylamide], for which the melting point is 196 to 197 °C. Further, the IC50 on hP2X7 is 110 nM.
Regarding `C[C@H](CO)N1Cc2c(NC(=O)CC34CC5CC(CC(C5)C3)C4)c(Cl)cc(Cl)c2C1=O` [Compound I-18b, 2-Adamantan-1-yl-N-[5,7-dichloro-2-((R)-2-hydroxy-1-methyl-ethyl)-1-oxo-2,3-dihydro-1H-isoindol-4-yl]-acetamide], the IC50 on hP2X7 is 537 nM.
For the compound `COc1ccccc1CNC(=O)[C@@H]1CCCN(c2cccc3c2C(=O)N(CC2CCOCC2)C3=O)C1` [Compound I-5, (R)-1-[1,3-Dioxo-2-(tetrahydro-pyran-4-ylmethyl)-2,3-dihydro-1H-isoindol-4-yl]-piperidine-3-carboxylic acid 2-methoxy-benzylamide], on hP2X7, the IC50 is 355 nM.
Same read-out and setting: under `C[C@H](CO)N1Cc2c(ccc(Cl)c2NC(=O)CC23CC4CC(CC(C4)C2)C3)C1=O` [Compound I-18a, 2-Adamantan-1-yl-N-[5-chloro-2-((R)-2-hydroxy-1-methyl-ethyl)-1-oxo-2,3-dihydro-1H-isoindol-4-yl]-acetamide] stands 39.8 nM.
`CS(=O)(=O)c1ccccc1CNC(=O)[C@@H]1CCCN(c2cccc3c2C(=O)N(Cc2ccncc2)C3=O)C1` [Compound I-16, (R)-1-(1,3-Dioxo-2-pyridin-4-ylmethyl-2,3-dihydro-1H-isoindol-4-yl)-piperidine-3-carboxylic acid 2-methanesulfonyl-benzylamide] displayed a melting point of 101 to 102 °C. For the same compound, the IC50 at hP2X7 was 204 nM.
In the same order, the values of `O=C(NCC1CCCCC1)[C@@H]1CCCN(c2cccc3c2C(=O)N(Cc2ccncc2)C3=O)C1` [Compound I-15, (R)-1-(1,3-Dioxo-2-pyridin-4-ylmethyl-2,3-dihydro-1H-isoindol-4-yl)-piperidine-3-carboxylic acid cyclohexylmethyl-amide] are 172 to 173 °C and 708 nM.
For `COC[C@@H](C)N1Cc2c(ccc(Cl)c2NC(=O)Cc2ccc(F)c(C(F)(F)F)c2)C1=O` [Compound I-21, N-[5-Chloro-2-((R)-2-methoxy-1-methyl-ethyl)-1-oxo-2,3-dihydro-1H-isoindol-4-yl]-2-(4-fluoro-3-trifluoromethyl-phenyl)-acetamide], the melting point was 131 to 132 °C. Besides, the IC50 at hP2X7 was 389 nM.
With `COc1cccc(CNC(=O)[C@@H]2CCCN(c3cccc4c3C(=O)N(Cc3ccncc3)C4=O)C2)c1OC` [Compound I-10, (R)-1-(1,3-Dioxo-2-pyridin-4-ylmethyl-2,3-dihydro-1H-isoindol-4-yl)-piperidine-3-carboxylic acid 2,3-dimethoxy-benzylamide], the melting point was 199 to 200 °C. In addition, at hP2X7, the IC50 is 182 nM.
Consider `COc1ccccc1CNC(=O)[C@H]1CCCN(c2cccc3c2C(=O)N(Cc2ccncc2)C3=O)C1` [Compound I-2, (S)-1-(1,3-Dioxo-2-pyridin-4-ylmethyl-2,3-dihydro-1H-isoindol-4-yl)-piperidine-3-carboxylic acid 2-methoxy-benzylamide], for which the IC50 at hP2X7 is 741 nM.
With `COc1ccccc1CNC(=O)[C@@H]1CCCN(c2cccc3c2C(=O)N(Cc2ccncc2)C3=O)C1` [Compound I-1b, (R)-1-(1,3-Dioxo-2-pyridin-4-ylmethyl-2,3-dihydro-1H-isoindol-4-yl)-piperidine-3-carboxylic acid 2-methoxy-benzylamide], the IC50 at hP2X7 is 55 nM.

As a reminder, the melting point is the temperature of the solid-liquid transition.
